{
  "source": "patent US11213522B2",
  "about": "“Autoimmune-induced glutamatergic receptor dysfunction methods and treatments” (SARAH HERZOG MEMORIAL HOSPITAL EZRAT NASHIM ASSOCIATION, priority 2013, dated 2022)",
  "key": {"[1]": {"system": "patient positive for anti-NR1 NMDAR antibodies", "experiment": "Digit Span Test (DST), forward and backward", "type": "in vivo, human", "conditions": "post-6 weeks D-serine", "procedure": "(§1) The trial consisted of two periods, starting with a 2 week lead-in/stabilization period (−2-0) following which the patient was entered in the second period of the study which consisted of a 6 week (0-6), open-label, fixed dose therapy phase. During this phase, the patient received adjuvant treatment with DSR, whose dose was increased from 1500 mg/day (week 1) to 2000 mg/day (weeks 2 and 3) to 3000 mg/day (weeks 4 and 5) and to 4000 mg/day (week 6). The doses of the ongoing medication received by the patient remained fixed throughout the study and no changes in medication were performed.\n(§2) In addition, cognitive performance was assessed pre- and post DSR treatment. For this purpose, a 1.5-hour neurocognitive assessment battery (nine computerized and two paper/pencil tests) was employed that measures accuracy and speed of performance in major cognition domains, including attention/vigilance, planning, short-term and working memory, decision making, abstraction and mental flexibility. All the tests were formatted like games and puzzles, and were administered to the patient as part of the comprehensive neuropsychiatric assessment at baseline and the end of study. The neurocognitive battery included the 1) Test of Attentional Vigilance (TOAV, (Forbes, 1998, Journal of Clinical Psychology 54:461-476; Greenberg, 1993, Journal of Child Psychology and Psychiatry 34: 1019-30)); 2) Tower of London (TOL, (Shailice, 1982, Specific impairments of planning Philosophical Transactions of the Royal Society of London. Series B, Biological Sciences 298:199-209); 3-4) Digit Span Test (DST, forward and backward (Wechsler 1997, The Wechsler adult intelligence scale-III. San Antonio, Tex.: Psychological Corporation; Kaplan 1991, The WAIS-R as a neuropsychological instrument. San Antonio, Tex.: The Psychological Corporation; Lamar et al., 2007, Neuropsychologia 45:245-54; Lamar et al., 2008, Neuropsychologia 46:2597-601)); 5-6) Corsi Block Tapping Test (CBTT, forward and backward, (Corsi, 1972, Dissertation Abstracts International. 34:819B; Kessels et al., 2000, Applied Neuropsychology 7:252-58, Kessels et al., 2008, Assessment 15:426-34)); 7) Flanker Task (Erikson and Eriksen, 1974; Perception & Psychophysics 25: 249-63, Stins et. al., 2007, Advances in Cognitive Psychology 3:389-96); 8) Time Wall (Perez et al., 1987, Unified Tri-services cognitive performance assessment battery: review and methodology; DTIC Document ADA181697, http://www.dtic.mil/dtic/tr/fulltext/u2/a81697.pdf); and Wisconsin Card Sort Test (WCST, (Berg, 1948, J Gen Psychol39:15-22; Nelson, 1976, Cortex 12:313-24)). […]"}, "[2]": {"system": "patient positive for anti-NR1 NMDAR antibodies", "experiment": "Trail-Making-Test (TMT) part A and part B", "type": "in vivo, human", "conditions": "post-6 weeks D-serine", "procedure": "as §1\n(§3) In addition, cognitive performance was assessed pre- and post DSR treatment. For this purpose, a 1.5-hour neurocognitive assessment battery (nine computerized and two paper/pencil tests) was employed that measures accuracy and speed of performance in major cognition domains, including attention/vigilance, planning, short-term and working memory, decision making, abstraction and mental flexibility. All the tests were formatted like games and puzzles, and were administered to the patient as part of the comprehensive neuropsychiatric assessment at baseline and the end of study. […]"}, "[3]": {"system": "patient positive for anti-NR1 NMDAR antibodies", "experiment": "Time Wall", "type": "in vivo, human", "conditions": "post-6 weeks D-serine", "procedure": "as §1, §3"}, "[4]": {"conditions": "acute and chronic administration of 1-2 g DSR in humans; cited from earlier work"}, "[5]": {"system": "patient positive for anti-NR1 NMDAR antibodies", "experiment": "Wisconsin Card Sort Test (WCST)", "type": "in vivo, human", "conditions": "post-6 weeks D-serine; pre-treatment subject unable to complete task", "procedure": "as §1, §2"}, "[6]": {"conditions": "doses of ≤4 g/day; cited from earlier work"}, "[7]": {"conditions": "pre-treatment subject unable to complete task"}},
  "data": [
    {"smiles": "N[C@H](CO)C(=O)O", "note": "[D-serine]", "values": [
      {"measurement": "DST Forward Span Length (3-9)", "setting": "[1]; pre-treatment 6", "value": 7},
      {"measurement": "DST Forward Number Correct (0-14)", "setting": "[1]; pre-treatment 8", "value": 9},
      {"measurement": "DST Backward Number Correct (0-14)", "setting": "[1]; [7]", "value": 3},
      {"measurement": "DST Backward Span Length (3-9)", "setting": "[1]; [7]", "value": 4},
      {"measurement": "TMT Part A", "setting": "[2]; pre-treatment 42", "value": 60.71, "unit": "s"},
      {"measurement": "TMT Part B", "setting": "[2]; pre-treatment 102", "value": 86.35, "unit": "s"},
      {"measurement": "Time Wall accuracy score, mean ± SD", "setting": "[3]; pre-treatment 0.056 ± 0.053", "value": "0.077 ± 0.051"},
      {"measurement": "Time Wall correctly estimated trials, total (0-20)", "setting": "[3]; pre-treatment 12", "value": 6},
      {"measurement": "Increase in DSR serum levels", "setting": "[4]", "value": "≥ 100", "unit": "times"},
      {"measurement": "WCST Category Score", "setting": "[5]", "value": 5},
      {"measurement": "WCST Total correct score %", "setting": "[5]", "value": 81.25, "unit": "%"},
      {"measurement": "WCST Total error score %", "setting": "[5]", "value": 18.75, "unit": "%"},
      {"measurement": "WCST Trials to complete 1st category", "setting": "[5]", "value": 12},
      {"measurement": "Adverse events", "setting": "[6]", "value": "No significant adverse events"}
    ]}
  ]
}
